Source: patent publication US20050233413A1, “Neuroprotective polypeptides and methods of use” (priority 2002, published 2005)
Read-outs that look alike come from different tables or passages of the source. Where a SMILES comes first, the peptide text is derived from it. Where no end group is shown, it is not given here. [ ]: non-standard residue; d: D form. pS = N[C@@H](COP(=O)(O)O)C(=O)O

Experiments:
[1] = tested on: V642I-APP, NL-APP, M146L-PS1, N141I-PS2 holoprotein expression in F11 cells; assay: Immunoblot analysis of transfected FAD gene expression; format: cell-based, rat/mouse hybrid; details: F11 cells treated with peptide
Description: Immunoblot analysis was performed as described. For the analysis of transfected FAD gene expression, lysates (20 μg/lane) from cells transfected with each FAD gene (V642I-APP, NL-APP, M146L-PS1, N141I-PS2) were submitted to SDS-PAGE and were electrically blotted to a PVDF sheet. After blocking, the sheet was soaked with antibodies [for APP mutants: 5 μg/ml 22C11 (CHEMICON, Temecula, Calif.); for PS1 mutant: 1/2000 of anti-PS1 N-terminus antibody (CHEMICON) for PS2 mutant: 1/500 of anti-PS2 antibody (Cell Signaling Technology, Beverly, Mass.)] and then with HRP-labeled secondary antibodies. The antigenic bands were visualized by ECL (Amersham Pharmacia Biotech, Uppsala, Sweden).

[2] = tested on: Aβ and four FAD genes (V642I-APP, NL-APP, M146L-PS1, and N141I-PS2); format: cell-based; details: for Full protection (minimal concentration that exerted full cytoprotection): Table 5, marked *
Source text: (§1) F11 cells, the hybrid of a rat embryonic-day-13 primary cultured primary neuron and a mouse neuroblastoma cell, are one of the best models for primary cultured neurons as they carry representative characteristics of primary neurons, such as generation of action potentials without differentiation by NGF [22]. They have been used in various studies of is neuronal functions. Using these cells, the underlying mechanisms for cytotoxicity by V642I-APP have well been analyzed. Cytotoxicity by V642 mutants of APP has also been confirmed in multiple different systems. F11 cells were grown in Ham's F-12 (GibcoBRL, Gaithersburg, Md.) plus 18% fetal bovine serum (FBS; Hyclone, Logan, Utah) and antibiotics, as described previously. F11 cells (7×10^4 cell/well in a 6-well plate cultured in Ham's F-12 plus 18% FBS for 12-16 hr) were transfected with plasmids encoding FAD genes by lipofection [FAD cDNA 2 μg, LipofectAMINE 4 μl, PLUS reagent 8 μl (GibcoBRL)] in the absence of serum for 3 hr, and were incubated with Ham's F-12 plus 18% FBS for 2 hr. Then, culture media were changed to Ham's F-12 plus 10% FBS with or without HN peptides, and cells were cultured for an additional 67 hr. Seventy-two hr after transfection, cell mortality was measured by Trypan blue exclusion assay, performed as follows. Cells were suspended by pipetting gently, and 50 μl of 0.4% (finally 0.08%) Trypan blue solution (Sigma, St Louis, Mo.) was mixed with 200 μl of the cell suspension at room temperature. Stained cells were counted within 3 min after the mixture with Trypan blue solution.
(§2) The primary culture of mouse cortical neurons was performed in poly-L-lysine-coated 24-well plates or 96-well plates (Sumitomo Bakelite, Akita, Japan), in the absence of serum and the presence of N2 supplement, as described previously. The purity of neurons by this method was >98%. Prepared neurons (for neurons seeded in 96-well plates: 2.5×10^4 or 5×10^4 cells/well, 100 μl culture medium/well; for neurons seeded in 24-well plates: 1.25×10^5 cells/well, 250 μl culture medium/well) were preincubated with or without 10 μM (in case for the experiment with 10 μM HN) synthetic HN for 16 hr, and treated with 25 μM Aβ in the presence or absence of 10 μM HN for 72 hr, respectively. As primary neurons were vulnerable to transient dryness during medium exchange, we treated neurons with 25 μM Aβ as follows. First, a half volume (50 μl for neurons in 96-well plates; 125 μl for neurons in 24-well plates) of old medium was discarded. Then, the same volume (50 μl for neurons in 96-well plates; 125 μl for neurons in 24-well plates) of prewarned fresh medium containing 10 μM HN and 50 μM Aβ (Aβ was directly resolved) was added to the culture. The Aβ peptides used at 25 μM to induce neurotoxicity formed aggregation in the medium during the cell culture at 37° C. for 72 hr. as described. The WST-8 cell viability assay was performed, using Cell Counting Kit-8 (Wako Pure Chemical Industries, Osaka, Japan), as described previously.
(§3) Calcein assay was performed with Calcein-AM {3′,6′-di-(O-acetyl)-2′,7′-bis [N,N-bis(carboxymethyl)aminomethyl] fluorescein, tetraacetoxymethyl ester; Dojindo}, as described previously. These assays were simultaneously performed in the experiments with neurons seeded in 96-well plates, as follows. Seventy-two hours after Aβ treatment, cells were added with the mixture of 10 μl WST-8 solution and 1 μl of 600 μM Calcein-AM. After 2 hr incubation in a CO2 incubator at 37° C., WST-8 absorbance was measured as OD450. After exchanging the medium to PBS to lower the background, Calcein-specific fluorescence (ex=485 nm, em=535 nm) was observed by fluorescence microscopy or measured by a spectrofluorometer (Wallac1420 ARVOsx Multi Label Counter). […]

[3] = tested on: F11 cells transfected with V642I-APP, NL-APP, M146L-PS1 or N141I-PS2 cDNA; format: cell-based, rat/mouse hybrid
Source text: as §1

[4] = tested on: primary cultured neurons treated with 25 μM Aβ1-43; format: cell-based; details: for concentration of full neuroprotection against Aβ1-43: 25 μM Aβ1-43; for Calcein fluorescence, percentage of neurons without treatment: 72 hours, means±S.D.
Description: (§4) In one assay, transfection with V642I-APP causes cell death in F11 neuronal hybrid cells. In the other, treatment with Aβ peptides causes cell death in primary cultured cortical neurons.
as §2
Calcein assay was performed with Calcein-AM {3′,6′-di-(O-acetyl)-2′,7′-bis [N,N-bis(carboxymethyl)aminomethyl] fluorescein, tetraacetoxymethyl ester; Dojindo}, as described previously. These assays were simultaneously performed in the experiments with neurons seeded in 96-well plates, as follows. Seventy-two hours after Aβ treatment, cells were added with the mixture of 10 μl WST-8 solution and 1 μl of 600 μM Calcein-AM. After 2 hr incubation in a CO2 incubator at 37° C., WST-8 absorbance was measured as OD450. After exchanging the medium to PBS to lower the background, Calcein-specific fluorescence (ex=485 nm, em=535 nm) was observed by fluorescence microscopy or measured by a spectrofluorometer (Wallac1420 ARVOsx Multi Label Counter). Most cell viability data using Calcein assay and WST-8 assay were obtained from neurons seeded at 5×10^4 cells/well in 96-well plates (high-density neurons) and confirmed by both assays with the cells seeded at 2.5×10^4 cells/well (low-density neurons).
Some experiments for Calcein assay were performed with neurons seeded in 24-well plates. […] In most experiments using primary neurons, four independent experiments were performed and the means? S. D. of the results were discussed.

[5] = tested on: F11 cells transfected with V642I-APP cDNA; assay: F11 cell death by V642I-APP transfection (Trypan blue exclusion); format: cell-based; details: 72 hr after transfection
Source text: as §4, §1

Aβ and V642I-APP = format: cell-based; details: Table 5, marked **
Source text: as §1, §2, §3

[6] = V642I-APP + 10 pM peptide, means±S.D., V642I-APP alone 52.9 ± 1.1
[7] = 25 μM Aβ1-43 + 10 pM peptide, Aβ alone 8.9 ± 0.8

CC[C@H](C)[C@H](NC(=O)[C@H](CCC(=O)O)NC(=O)[C@@H](CO)NC(=O)[C@@H](NC(=O)[C@H](CC(C)C)NC(=O)[C@H](CC(C)C)NC(=O)[C@H](CC(C)C)NC(=O)[C@H](CC(C)C)NC(=O)[C@H](CS)NC(=O)[C@H](CO)NC(=O)[C@H](C)NC(=O)CNC(=O)[C@H](C)NC(=O)[C@@H]1CCCN1)[C@@H](C)O)C(=O)N[C@@H](CC(=O)O)C(=O)N[C@@H](CC(C)C)C(=O)N1CCC[C@H]1C(=O)O [AGA-(D-Ser14)HN17, PAGASCLLLLT(D-Ser)EIDLP] (H-PAGASCLLLLT[dS]EIDLP-OH; N-terminus and C-terminus assumed)
CMV-promoter-driven expression of V642I-APP, NL-APP, M146L-PS1, or N141I-PS2 holoprotein [1]: did not suppress | IC50 [2]: 0.01 to 0.1 nM | action potency compared with another peptide (in words) [2]: as potent as AGAD-Ser^14)HN | Full protection (minimal concentration that exerted full cytoprotection) [2]: ˜100 pM | concentration of full cytoprotection against FAD genes ([3]; each of V642I-APP): 100 pM | IC50 ([3]; each of V642I-APP, read-out: IC50 of suppression of neuronal cell death by FAD genes): ~0.01 nM

CC[C@H](C)[C@H](NC(=O)[C@H](CCC(=O)O)NC(=O)[C@@H](CO)NC(=O)[C@@H](NC(=O)[C@H](CC(C)C)NC(=O)[C@H](CC(C)C)NC(=O)[C@H](CC(C)C)NC(=O)[C@H](CC(C)C)NC(=O)[C@H](CS)NC(=O)[C@H](CO)NC(=O)[C@H](C)NC(=O)CNC(=O)[C@H](C)NC(=O)[C@@H]1CCCN1C(=O)[C@H](C)NC(=O)[C@@H](N)CCSC)[C@@H](C)O)C(=O)N[C@@H](CC(=O)O)C(=O)N[C@@H](CC(C)C)C(=O)N1CCC[C@H]1C(=O)N[C@H](C(=O)N[C@@H](CCCCN)C(=O)N[C@@H](CCCNC(=N)N)C(=O)N[C@@H](CCCNC(=N)N)C(=O)N[C@@H](C)C(=O)O)C(C)C [AGA-(D-Ser14)HN, MAPAGASCLLLLT(D-Ser)EIDLPVKRRA] (H-MAPAGASCLLLLT[dS]EIDLPVKRRA-OH; N-terminus and C-terminus assumed)
CMV-promoter-driven expression of V642I-APP, NL-APP, M146L-PS1, or N141I-PS2 holoprotein [1]: not affected | concentration of full cytoprotection [2]: 100 pM | Full protection (minimal concentration that exerted full cytoprotection) [2]: 100 to 300 pM

EFLIVIKSMAPAGASCLLLLTGEIDLPVKRRA [EF-AGA-HNG]
CMV-promoter-driven expression of V642I-APP, NL-APP, M146L-PS1, or N141I-PS2 holoprotein [1]: little or only marginal alteration | IC50 [4]: ~0.001 nM | concentration of full neuroprotection against Aβ1-43 [4]: 10 pM | Full protection (minimal concentration that exerted full cytoprotection) [2]: ˜10 pM | concentration of full cytoprotection against FAD genes ([3]; each of V642I-APP): 10 pM

MAPRGF(D-Ser)CLLLLT(D-Ser)EIDLPVKRRA (MAPRGF[dS]CLLLLT[dS]EIDLPVKRRA) [D-Ser7/14 HN]
Full protection (minimal concentration that exerted full cytoprotection) [2]: ˜10 nM | cytoprotective action against FAD genes (in words) ([3]; V642I-APP): virtually identical to those of (D-Ser^14)HN

MAPRGF(p-S)CLLLLT(p-S)EIDLPVKRRA (MAPRGF[pS]CLLLLT[pS]EIDLPVKRRA) [P-S7/14 HN]
% dead cells of total cells [5, 6]: 54.8 ± 0.5% | % dead cells of total cells ([5]; V642I-APP + 100 pM peptide): 54.1 ± 1.5% | % dead cells of total cells ([5]; V642I-APP + 1 nM peptide): 52.9 ± 1.6% | % dead cells of total cells ([5]; V642I-APP + 10 nM peptide): 53.8 ± 3.1% | % dead cells of total cells ([5]; V642I-APP + 100 nM peptide): 38.2 ± 1.9 % | % dead cells of total cells ([5]; V642I-APP + 1 μM peptide): 22.7 ± 5.2 % | % dead cells of total cells ([5]; V642I-APP + 10 μM peptide): 11.8 ± 1.2 % | Calcein fluorescence, percentage of neurons without treatment [4, 7]: 9.3 ± 0.4% | Calcein fluorescence, percentage of neurons without treatment ([4]; 25 μM Aβ1-43 + 100 pM peptide): 8.8 ± 0.3% | Calcein fluorescence, percentage of neurons without treatment ([4]; 25 μM Aβ1-43 + 1 nM peptide): 8.8 ± 0.2% | Calcein fluorescence, percentage of neurons without treatment ([4]; 25 μM Aβ1-43 + 10 nM peptide): 8.7 ± 0.3% | Calcein fluorescence, percentage of neurons without treatment ([4]; 25 μM Aβ1-43 + 100 nM peptide): 8.6 ± 0.2% | Calcein fluorescence, percentage of neurons without treatment ([4]; 25 μM Aβ1-43 + 1 μM peptide): 84.0 ± 5.8 % | Calcein fluorescence, percentage of neurons without treatment ([4]; 25 μM Aβ1-43 + 10 μM peptide): 103.3 ± 0.8 % | Full protection (minimal concentration that exerted full cytoprotection) (Aβ and V642I-APP): ˜10 μM

MAPRGFSCLLLLT(D-S)EIDLPVKRRA [D-Ser14 HN]
CMV-promoter-driven expression of V642I-APP, NL-APP, M146L-PS1, or N141I-PS2 holoprotein [1]: did not suppress | concentration of full neuroprotection against Aβ1-43 [4]: 1000 to 10000 pM | potency of neuroprotection against Aβ relative to HN ([4]; times as high as / higher than authentic HN): 100-1000 times | Full protection (minimal concentration that exerted full cytoprotection) [2]: ˜10 nM | concentration of full suppression of cell death by FAD mutants ([3]; V642I-APP): 10 nM | cytoprotective action against FAD genes (in words) ([3]; V642I-APP): virtually identical to that of HNG

MAPRGFSCLLLLT(p-S)EIDLPVKRRA (MAPRGFSCLLLLT[pS]EIDLPVKRRA) [P-S14 HN, p-S is phosphorylated L-Ser]
% dead cells of total cells [5, 6]: 56.5 ± 4.1% | % dead cells of total cells ([5]; V642I-APP + 100 pM peptide): 56.3 ± 2.7% | % dead cells of total cells ([5]; V642I-APP + 1 nM peptide): 54.3 ± 1.2% | % dead cells of total cells ([5]; V642I-APP + 10 nM peptide): 53.4 ± 2.0% | % dead cells of total cells ([5]; V642I-APP + 100 nM peptide): 41.8 ± 1.8 % | Calcein fluorescence, percentage of neurons without treatment [4, 7]: 8.6 ± 0.3% | Calcein fluorescence, percentage of neurons without treatment ([4]; 25 μM Aβ1-43 + 100 pM peptide): 8.6 ± 0.4% | Calcein fluorescence, percentage of neurons without treatment ([4]; 25 μM Aβ1-43 + 1 nM peptide): 8.9 ± 0.1% | Calcein fluorescence, percentage of neurons without treatment ([4]; 25 μM Aβ1-43 + 10 nM peptide): 8.6 ± 0.3% | Calcein fluorescence, percentage of neurons without treatment ([4]; 25 μM Aβ1-43 + 100 nM peptide): 8.6 ± 0.1% | Calcein fluorescence, percentage of neurons without treatment ([4]; 25 μM Aβ1-43 + 1 μM peptide): 85.8 ± 4.1 % | Calcein fluorescence, percentage of neurons without treatment ([4]; 25 μM Aβ1-43 + 10 μM peptide): 104.1 ± 1.7 % | Full protection (minimal concentration that exerted full cytoprotection) (Aβ and V642I-APP): ˜10 μM
